# According to patent US20240025883A1, “PYRIMIDIN-2-YL SULFONAMIDE DERIVATIVES” (Hoffmann-La Roche Inc., priority 2021, published 2024):
# Target: human GPR17 short isoform (Homo sapiens (Human), UniProt Q13304)
# Test: GPR17 cAMP assay (hGPR17 cAMP, antagonist mode against EC80 of MDL29,951)
# Format: cell-based
# Conditions: CHO-K1 cells stably expressing human GPR17 short isoform; EC80 of agonist MDL29,951; forskolin 15 μM
# Procedure: GPR17 cAMP Assay Protocol:
# CHO-K1 cells stably expressing vector containing untagged human GPR17 short isoform (Roche) were cultured at 37° C./5% CO2 in DMEM (Dulbecco's Modified Eagle Medium):F-12 (1:1) supplemented with 10% foetal bovine serum and 400 μg/ml Geneticin.
# Changes in intracellular cyclic adenosine monophosphate (cAMP) levels were quantified using the Nano-TRF Detection Assay kit (Roche Diagnostics, Cat. No. 05214386001). This assay allows for direct cAMP quantification in a homogeneous solution, cAMP is detected based on time-resolved fluorescence energy transfer (TR-FRET) and competitive binding of ruthenylated cAMP and endogenous cAMP to an anti-cAMP monoclonal antibody labeled with AlexaFluor-700. The Ruthenium complex serves as the FRET donor and transfers energy to AlexaFluor-700. The FRET signal is inversely proportional to the cAMP concentration.
# CHO-GPR17S cells were detached with Accutase and resuspended in assay buffer consisting of Hank's Balanced Salt Solution (HBSS), 10 mM HEPES (4-(2-hydroxyethyl) piperazine-1-ethanesulfonic acid solution) and 0.1% bovine serum albumin (pH 7.4). The cells were seeded in black 384-well plates (Corning) at a density of 10,000 cells/20 μl assay buffer until the addition of compounds.
# Test antagonist compounds were serially diluted in dimethyl sulfoxide (DMSO) and spotted in 384-well plates. The compounds were then diluted in HBSS buffer supplemented with an EC80 concentration of MDL29,951 (3-(2-Carboxy-4,6-dichloroindol-3-yl)propionic acid) (GPR17 agonist) plus 3-Isobutyl-1-methylxanthine (IBMX) (0.5 mM final concentration) and added to the cells at room temperature. Forskolin (15 μM final concentration) was added 5 minutes after the test compounds and the cells were incubated at room temperature for 30 minutes. The assay was stopped by adding cAMP detection mix (containing detergents for cell lysis) for 90 minutes at room temperature.
# Cellular cAMP was measured using a Paradigm reader (Molecular Devices). The raw data was used to calculate the FRET signal based on the assay's P-factor as per cAMP kit instructions. The data was normalized to the maximal activity of a reference antagonist and dose response curves were fitted to the percent activity of the test compounds using a sigmoidal dose response model (Genedata Screener).
# Sequence of human GPR17 short isoform (Q13304 29-367): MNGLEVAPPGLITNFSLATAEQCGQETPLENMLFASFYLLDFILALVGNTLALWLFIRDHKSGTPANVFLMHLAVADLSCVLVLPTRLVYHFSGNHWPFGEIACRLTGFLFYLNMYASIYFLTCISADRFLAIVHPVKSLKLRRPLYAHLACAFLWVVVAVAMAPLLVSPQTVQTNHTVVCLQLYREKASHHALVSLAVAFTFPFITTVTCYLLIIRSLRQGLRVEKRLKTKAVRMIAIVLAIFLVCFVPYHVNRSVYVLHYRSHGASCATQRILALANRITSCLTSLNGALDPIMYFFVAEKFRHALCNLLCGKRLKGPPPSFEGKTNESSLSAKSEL
row,Structure (SMILES),IC50 [nM]
1,"COc1nc(NS(=O)(=O)c2csc3cc(Br)ccc23)ncc1OCCF [Example 158, 6-bromo-N-[5-(2-fluoroethoxy)-4-methoxy-pyrimidin-2-yl]benzothiophene-3-sulfonamide]",47
2,"COc1nc(NS(=O)(=O)c2c[nH]c3cc(Cl)ccc23)nc(OCCF)c1Br [Example 14, N-[5-bromo-4-(2-fluoroethoxy)-6-methoxy-pyrimidin-2-yl]-6-chloro-1H-indole-3-sulfonamide]",215
3,"COc1nc(NS(=O)(=O)c2c[nH]c3cc(C(F)F)ccc23)ncc1OC(F)(F)CF [Example 100, 6-(difluoromethyl)-N-[4-methoxy-5-(1,1,2-trifluoroethoxy)pyrimidin-2-yl]-1H-indole-3-sulfonamide]",160
4,"COc1nc(NS(=O)(=O)c2c[nH]c3c(F)c(Br)ccc23)ncc1CC(F)F [Example 191, 6-bromo-N-[5-(2,2-difluoroethyl)-4-methoxy-pyrimidin-2-yl]-7-fluoro-1H-indole-3-sulfonamide]",33
5,"COc1nc(NS(=O)(=O)c2csc3nc(Br)ccc23)ncc1CC(F)F [Example 148, 6-bromo-N-[5-(2,2-difluoroethyl)-4-methoxy-pyrimidin-2-yl]thieno[2,3-b]pyridine-3-sulfonamide]",49
6,"CC#Cc1c(OC)nc(NS(=O)(=O)c2c[nH]c3cc(Cl)ccc23)nc1OC [Example 57, 6-chloro-N-(4,6-dimethoxy-5-prop-1-ynyl-pyrimidin-2-yl)-1H-indole-3-sulfonamide]",34
7,"COc1nc(NS(=O)(=O)c2c[nH]c3c(F)c(Cl)ccc23)nc(OC)c1OCC#N [Example 219, 6-chloro-N-[5-(cyanomethoxy)-4,6-dimethoxy-pyrimidin-2-yl]-7-fluoro-1H-indole-3-sulfonamide]",18
8,"COc1nc(NS(=O)(=O)c2c[nH]c3cc(C(F)F)ccc23)ncc1CC(F)F [Example 195, N-[5-(2,2-difluoroethyl)-4-methoxy-pyrimidin-2-yl]-6-(difluoromethyl)-1H-indole-3-sulfonamide]",54
9,"COc1nc(NS(=O)(=O)c2c[nH]c3c(Cl)c(Cl)ccc23)ncc1CCC(F)F [Example 211, 6,7-dichloro-N-[5-(3,3-difluoropropyl)-4-methoxy-pyrimidin-2-yl]-1H-indole-3-sulfonamide]",30
10,"COc1nc(NS(=O)(=O)c2c[nH]c3nc(Cl)ccc23)nc(OC)c1OC(F)F [Example 205, 6-chloro-N-[5-(difluoromethoxy)-4,6-dimethoxy-pyrimidin-2-yl]-1H-pyrrolo[2,3-b]pyridine-3-sulfonamide]",49
11,"COc1nc(NS(=O)(=O)c2c[nH]c3c(N4CCOCC4)c(Cl)ccc23)nc(OC)c1CC(F)F [Example 133, 6-chloro-N-[5-(2,2-difluoroethyl)-4,6-dimethoxy-pyrimidin-2-yl]-7-morpholino-1H-indole-3-sulfonamide]",76
12,"COc1nc(NS(=O)(=O)c2c[nH]c3cc(Cl)ccc23)ncc1OC(F)(F)CF [Example 41, 6-chloro-N-[4-methoxy-5-(1,1,2-trifluoroethoxy)pyrimidin-2-yl]-1H-indole-3-sulfonamide]",21
13,"COCCc1cnc(NS(=O)(=O)c2c[nH]c3cc(Cl)ccc23)nc1OC [Example 49, 6-chloro-N-[4-methoxy-5-(2-methoxyethyl)pyrimidin-2-yl]-1H-indole-3-sulfonamide]",809
14,"COc1nc(NS(=O)(=O)c2c[nH]c3c(F)c(C(F)F)ccc23)nc(OC)c1CC(F)F [Example 251, N-[5-(2,2-difluoroethyl)-4,6-dimethoxy-pyrimidin-2-yl]-6-(difluoromethyl)-7-fluoro-1H-indole-3-sulfonamide]",22
15,"COc1nc(NS(=O)(=O)c2csc3nc(Br)ccc23)ncc1OCCF [Example 146, 6-bromo-N-[5-(2-fluoroethoxy)-4-methoxy-pyrimidin-2-yl]thieno[2,3-b]pyridine-3-sulfonamide]",89
16,"COc1cnc(NS(=O)(=O)c2c[nH]c3cc(Cl)ccc23)nc1Cl [Example 173, 6-chloro-N-(4-chloro-5-methoxy-pyrimidin-2-yl)-1H-indole-3-sulfonamide]",877
17,"COc1nc(NS(=O)(=O)c2c[nH]c3c(C#N)c(Cl)ccc23)ncc1CC(F)F [Example 223, 6-chloro-7-cyano-N-[5-(2,2-difluoroethyl)-4-methoxy-pyrimidin-2-yl]-1H-indole-3-sulfonamide]",40

row,Structure (SMILES),IC50 [nM]
1,"COc1nc(NS(=O)(=O)c2c[nH]c3c(F)c(Br)ccc23)nc(OC)c1OCC(F)F [Example 242, 6-bromo-N-[5-(2,2-difluoroethoxy)-4,6-dimethoxy-pyrimidin-2-yl]-7-fluoro-1H-indole-3-sulfonamide]",43
2,"COc1nc(NS(=O)(=O)c2c[nH]c3cc(Cl)ccc23)nc(OC)c1OCF [Example 51, 6-chloro-N-[5-(fluoromethoxy)-4,6-dimethoxy-pyrimidin-2-yl]-1H-indole-3-sulfonamide]",94
3,"COc1nc(NS(=O)(=O)c2c[nH]c3cc(Cl)ccc23)nc(OC)c1C [Example 17, 6-chloro-N-(4,6-dimethoxy-5-methyl-pyrimidin-2-yl)-1H-indole-3-sulfonamide]",19
4,"COc1nc(NS(=O)(=O)c2c[nH]c3cc(Br)ccc23)ncc1CCC#N [Example 89, 6-bromo-N-[5-(2-cyanoethyl)-4-methoxy-pyrimidin-2-yl]-1H-indole-3-sulfonamide]",212
5,"COc1nc(NS(=O)(=O)c2c[nH]c3cc(Br)ccc23)ncc1OC(F)F [Example 189, 6-bromo-N-[5-(difluoromethoxy)-4-methoxy-pyrimidin-2-yl]-1H-indole-3-sulfonamide]",167
6,"COc1nc(NS(=O)(=O)c2c[nH]c3c4c(ccc23)CCN(C)C4=O)ncc1OCCF [Example 293, N-[5-(2-Fluoroethoxy)-4-Methoxy-Pyrimidin-2-Yl]-9-Keto-8-Methyl-6,7-Dihydro-1H-Pyrrol[3,2-h]Isoquinoline-3-Sulfonamide]",240
7,"CCc1nc(NS(=O)(=O)c2c[nH]c3cc(Cl)ccc23)nc(OC)c1C [Example 137, 6-chloro-N-(4-ethyl-6-methoxy-5-methyl-pyrimidin-2-yl)-1H-indole-3-sulfonamide]",442
8,"COc1nc(NS(=O)(=O)c2c[nH]c3nc(C(F)F)ccc23)ncc1OC(F)(F)CF [Example 238, 6-(difluoromethyl)-N-[4-methoxy-5-(1,1,2-trifluoroethoxy)pyrimidin-2-yl]-1H-pyrrolo[2,3-b]pyridine-3-sulfonamide]",383
9,"COc1nc(NS(=O)(=O)c2c[nH]c3cc(Cl)ccc23)ncc1C#CC1COC1 [Example 180, 6-chloro-N-[4-methoxy-5-[2-(oxetan-3-yl)ethynyl]pyrimidin-2-yl]-1H-indole-3-sulfonamide]",305
10,"COc1nc(NS(=O)(=O)c2c[nH]c3nc(Cl)ccc23)ncc1CC(F)F [Example 203, 6-chloro-N-[5-(2,2-difluoroethyl)-4-methoxy-pyrimidin-2-yl]-1H-pyrrolo[2,3-b]pyridine-3-sulfonamide]",127
11,"COc1nc(NS(=O)(=O)c2c[nH]c3cc(Cl)ccc23)ncc1SC(F)F [Example 37, 6-chloro-N-[5-(difluoromethylthio)-4-methoxy-pyrimidin-2-yl]-1H-indole-3-sulfonamide]",68
12,"COc1nc(NS(=O)(=O)c2c[nH]c3cc(Cl)ccc23)ncc1OC(F)(F)C(F)F [Example 43, 6-chloro-N-[4-methoxy-5-(1,1,2,2-tetrafluoroethoxy)pyrimidin-2-yl]-1H-indole-3-sulfonamide]",60
13,"CCOc1cnc(NS(=O)(=O)c2c[nH]c3cc(Cl)ccc23)nc1OC [Example 6, 6-chloro-N-(5-ethoxy-4-methoxy-pyrimidin-2-yl)-1H-indole-3-sulfonamide]",129
14,"COc1nc(NS(=O)(=O)c2csc3nc(Cl)ccc23)nc(OC)c1OC(F)F [Example 271, 6-chloro-N-[5-(difluoromethoxy)-4,6-dimethoxy-pyrimidin-2-yl]thieno[2,3-b]pyridine-3-Sulfonamide]",290
15,"COc1nc(NS(=O)(=O)c2c[nH]c3c([S+](C)[O-])c(Cl)ccc23)ncc1CC(F)F (stereo not drawn) [Example 276, 6-chloro-N-[5-(2,2-difluoroethyl)-4-methoxy-pyrimidin-2-yl]-7-methylsulfinyl-1H-indole-3-sulfonamide]",136
16,"COc1nc(NS(=O)(=O)c2c[nH]c3cc(Cl)ccc23)nc(OC)c1CC(C)(F)F [Example 63, 6-chloro-N-[5-(2,2-difluoropropyl)-4,6-dimethoxy-pyrimidin-2-yl]-1H-indole-3-sulfonamide]",182
